# Reference: paper PMC3171627 (Bioorganic & medicinal chemistry letters, 2011)
# Columns and labels:
# CB1 = CB1 (Homo sapiens, UniProt P21554); conditions: GTPγ[35S] assay; antagonist series; cited from earlier work
# CB2 = conditions: read-out: CB2 functional activity EC50; GTPγ[35S] assay; antagonist series; cited from earlier work
# CB2 receptor = CB2 receptor (Mus musculus, UniProt P47936); test: visualization of CB2 receptor binding by CD4+ T cells, confocal microscopy; format: cell-based; conditions: 5 µM, on ice for 30 minutes, T cells from peripheral lymph nodes of BALB/C mice
# CB2 receptor, sequence (P47936 whole entry): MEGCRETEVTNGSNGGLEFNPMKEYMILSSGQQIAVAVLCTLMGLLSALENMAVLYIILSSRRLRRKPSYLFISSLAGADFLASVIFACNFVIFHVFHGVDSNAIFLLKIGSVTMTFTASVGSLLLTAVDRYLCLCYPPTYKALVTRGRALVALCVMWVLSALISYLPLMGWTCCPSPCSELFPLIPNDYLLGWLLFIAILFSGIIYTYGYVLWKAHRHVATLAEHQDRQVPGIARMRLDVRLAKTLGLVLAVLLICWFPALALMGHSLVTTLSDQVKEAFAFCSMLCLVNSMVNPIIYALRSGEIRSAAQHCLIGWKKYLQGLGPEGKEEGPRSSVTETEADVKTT
# CB1, sequence (P21554 whole entry, species assumed): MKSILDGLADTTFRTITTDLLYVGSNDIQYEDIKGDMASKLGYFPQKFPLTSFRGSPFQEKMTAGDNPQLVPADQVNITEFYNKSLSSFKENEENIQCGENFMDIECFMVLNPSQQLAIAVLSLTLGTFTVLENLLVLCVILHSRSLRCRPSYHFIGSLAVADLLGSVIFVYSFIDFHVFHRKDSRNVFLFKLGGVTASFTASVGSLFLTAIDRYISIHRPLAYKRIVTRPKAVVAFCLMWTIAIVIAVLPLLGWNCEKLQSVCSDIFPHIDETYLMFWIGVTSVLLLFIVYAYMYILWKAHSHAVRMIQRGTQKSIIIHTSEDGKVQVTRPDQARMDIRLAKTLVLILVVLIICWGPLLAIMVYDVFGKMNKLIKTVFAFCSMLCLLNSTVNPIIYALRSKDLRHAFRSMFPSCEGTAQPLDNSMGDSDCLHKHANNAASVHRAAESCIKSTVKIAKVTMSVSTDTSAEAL
SMILES,CB1 activity (CB1),EC50 (CB2),staining of CD4+ T cells (CB2 receptor)
CCCCCN1C(=O)/C(=N\NC(=O)CN2CCOCC2)c2ccc(OC)cc21 [Compound 5],did not show any CB1 functional activity,13.3 nM,–
CCCCCN1C(=O)/C(=N\NC(=O)CN(C)c2ccc([N+](=O)[O-])c3nonc23)c2ccc(OC)cc21 [Compound 6],–,–,stained the CD4^+ T cells
